From paper PMC9612005 (Pharmaceutics, 2022) come the findings set out here.

This test relates to retinal ganglion cells. The experiment in a line: Light-evoked retinal ganglion cell spike responses of mouse retinal explants on MEA. The class given is cell-based. Particulars: for Spike count (10 ms bin): inh 50 µM, act 0.1 µM, mean ±std; for drop of RGC spiking activity: ≥−2.0 log. Here is the method:
Further animal experiments were performed using adult postnatal-day (P) 25–30 C57BL/6J mice (n = 12). Animals were housed under standard 12 h white cyclic lighting, had free access to food, water, and playgrounds, and were used irrespective of gender. Animal protocols compliant with §4 of the German law on animal protection were reviewed and approved by the Tübingen University committee on animal protection, and registered on 30 March 2022 under the No. AK05/22M. Moreover, experiments were performed in accordance with the ARVO statement for the use of animals in ophthalmic and visual research. All efforts were made to minimize the number of mice used and their suffering.
The mice were kept overnight in a ventilated light-tight box for dark-adaption. Subsequent procedures were performed under dim red light. The eyes of the mice were enucleated; then, the retina was isolated in extracellular solution containing (in mM): 125 NaCl, 26 NaHCO3, 2.5 KCl, 2 CaCl2, 1 MgCl2, 1.25 NaH2PO4, and 20 glucose, and was maintained at pH 7.4 using carboxygen perfusion (95/5% O2/CO2). All chemicals were obtained from Merck KGaA (Darmstadt, Germany). For MEA recording, the retinas were placed in the MEA-recording chamber (GC-side down). During the recordings, the tissue was perfused with carboxygenated medium at 32 °C. The chamber perfusion rate was adjusted to 2 mL/min.
Electrophysiological recordings were performed to assess the light dependent retinal responses (photoreceptors µERG and RGCs spikes) by means of a multi-electrode array system (MEA, USB-MEA60-Up-BC-System-E from Multi Channel Systems, Reutlingen, Germany) equipped with MEA 200/30iR-ITO-pr. The recordings were performed at a 25,000 Hz sampling-rate collecting unfiltered raw data. The trigger-synchronized operation of the light stimulation (LEDD1B T-Cube, Thorlabs) and MEA recording were controlled by the recording protocol set within the MCRack software (v 4.6.2, Multi Channel Systems, Reutlingen, Germany) and the digital I/O box (MCS). The light stimulation (white light LED, 2350 mW, MCWHD3, Thorlabs, Newton, NJ, USA) was applied from beneath the transparent glass MEA, guided by optic fiber and optics. A spectrometer USB4000-UV-VIS-ES (Ocean Optics, Orlando, FL, USA) was employed to calibrate the intensity of the applied light-stimulation protocol. To discriminate the rod and cone photoreceptor responses, a light-stimulation protocol for ex vivo MEA recordings was established following the standard in-vivo ERG protocol. For scotopic recordings (rod responses), the animals were dark-adapted (12 h), while for the photopic recordings (cone responses), the retinal explants were light-adapted on the MEA (5 min at intensity of 4.20 × 10^13 photons/cm^2/s), subsequent to scotopic stimulation. The parameters of the light stimuli were set as: light flash 250 ms long (3 repetition per light intensity, 20 s interval). Scotopic: 10 stimuli in 0.5 log steps from −4.5 to 0.0 (1.33 × 10^9–4.20 × 10^13 photons/cm^2/s). Photopic (background light: 4.20 × 10^13 photons/cm^2/s): four stimuli in 0.5 log steps from +0.5 to +2.0 (1.33 × 10^14–4.20 × 10^15 photons/cm^2/s).
MEA-recorded raw data files were filtered employing a Butterworth 2nd order filter (MC-Rack, Multi-channel systems) to extract the µERG (field potentials: bandpass 0.01–100 Hz) and spikes (high pass 200 Hz). The filtered data were converted to *.hdf files by MC DataManager (v1.6.1.0, Multi Channel Systems, Reutlingen, Germany) for further data processing in MATLAB [39]. Shown traces data are the average of 30 MEA recording electrodes, per condition. n = 5 retinae were recorded per condition. Statistical significance was estimated by one-way ANOVA followed by the Dunnett´s test for multiple comparisons. Experimental data are given as mean ± SEM.

Setting [1] is: photopic, light intensity +0.5 log.
[2] abbreviates: photopic, light intensity +1.0 log.
Setting [3] is: photopic, light intensity +1.5 log.
Where [4] appears, read: photopic, light intensity +2.0 log.
The mark [5] stands for this setting: scotopic, light intensity 0.0 log.
Where [6] appears, read: scotopic, light intensity -0.5 log.
Setting [7] is: scotopic, light intensity -1.0 log.
[8] abbreviates: scotopic, light intensity -1.5 log.
[9] abbreviates: scotopic, light intensity -2.0 log.
[10] abbreviates: scotopic, light intensity -2.5 log.
[11] abbreviates: scotopic, light intensity -3.0 log.
Where [12] appears, read: scotopic, light intensity -3.5 log.
[13] abbreviates: scotopic, light intensity -4.0 log.
Setting [14] is: scotopic, light intensity -4.5 log.
The mark [15] stands for this setting: scotopic, inhibitor 50 µM, activator 0.1 µM.

For the compound `O=c1c2nc(Br)n([C@@H]3O[C@@H]4CO[P@@](=O)(S)O[C@H]4[C@H]3O)c2nc2[nH]c(-c3ccccc3)cn12` [Rp-8-Br-PET-cGMPS], the “Spike count (10 ms bin)” value under setting [1] was 4.85± 0.92; the “Spike count (10 ms bin)” value under setting [2] is given as 4.40± 0.94; the “Spike count (10 ms bin)” value under setting [3] is listed as 4.51± 1.07; the “Spike count (10 ms bin)” value under setting [4] came out at 4.92± 1.12; the “Spike count (10 ms bin)” value under setting [5] is 3.80± 0.26; the “Spike count (10 ms bin)” value under setting [6] was 3.48± 0.49. In addition, the “Spike count (10 ms bin)” value is, setting by setting: under setting [7], 2.91± 0.16; under setting [8], 2.80± 0.63; under setting [9], 2.55± 0.62; under setting [10], 0.83± 0.28; under setting [11], 0.72± 0.10; under setting [12], 1.14± 0.50. Moreover, the “Spike count (10 ms bin)” value is 0.98± 0.44 under setting [13] and 1.03± 0.27 under setting [14]. The “drop of RGC spiking activity” value under setting [15] was 30–40%. For the setting “≥+0.5 log, inhibitor 50 µM, activator 0.1 µM”, the “RGC spiking activity under photopic stimulation” value is listed as “remained nearly at control levels”.
Take `Nc1nc2c(nc(Sc3ccc(Cl)cc3)n2[C@@H]2O[C@@H]3COP(=O)(O)O[C@H]3[C@H]2O)c(=O)[nH]1` [8-pCPT-cGMP]: the “Spike count (10 ms bin)” value by setting is: under setting [1], 4.35± 0.79; under setting [2], 4.43± 0.47; under setting [3], 4.74± 1.09; under setting [4], 4.56± 0.92; under setting [5], 3.92± 0.24; under setting [6], 3.60± 0.35. In addition, the “Spike count (10 ms bin)” value under setting [7] turned out to be 3.03± 0.52; the “Spike count (10 ms bin)” value under setting [8] turned out to be 3.04± 0.49; the “Spike count (10 ms bin)” value under setting [9] was 2.41± 0.38; the “Spike count (10 ms bin)” value under setting [10] is reported as 1.28± 0.51; the “Spike count (10 ms bin)” value under setting [11] is recorded as 0.73± 0.49; the “Spike count (10 ms bin)” value under setting [12] is 0.86± 0.30. Besides, the “Spike count (10 ms bin)” value under setting [13] is listed as 0.89± 0.07 and the “Spike count (10 ms bin)” value under setting [14] is on record as 0.67± 0.22. In addition, the “drop of RGC spiking activity” value under setting [15] was 35–47%.
